In patent US20070036775A1 (priority 2001, published 2007):
Peptide text beside a SMILES is read from it. * marks the point of attachment. Cbz = O=C(OCc1ccccc1)*; CH2F = FC*

Experiments:
Hela cells = experiment: STS-induced apoptosis in Hela cells, Hoechst staining of apoptotic nuclei; type: cell-based, human; conditions: for percentages of apoptotic cells: Hela cells, one day; for effect on STS-induced apoptosis: HeLa cells transfected with Ku70 construct, 24 hours
Experimental: Hela cells (10^6 cells) were transfected with 0.5 μg pEGFP and 1.0 μg pCMV-2B (Vector), pCMV-2B-Ku70 (Ku70 wt), pCMV-2B-Ku701-535 (Ku701-535), or pCMV-2B-Ku70536-609 (Ku70536-609). One day following transfection, cells were treated with 200 nM STS and the number of apoptotic cells was counted as described in FIG. 1 after 24 hours of STS treatment.
Hela cells (10^6 cells) were treated with 200 nM STS in the absence (STS) or presence of z-VAD-fmk (STS+z-VAD).

HEK293T cells [1] = experiment: UVC-irradiation-induced apoptosis in HEK293T cells, Hoechst staining; type: cell-based; conditions: for effect on UVC-irradiation-induced cell death: HEK293T cells transfected with Ku70 construct, 200 J/m^2 UVC, 24 hours
Experimental: HEK293T cells (10^6 cells) were transfected with 0.5 μg PEGFP and 1.0 μg pCMV-2B (Vector), pCMV-2B-Ku70 wt (Ku70 wt), or pCMV-2B-Ku70536-609 (Ku70536-609). One day following transfection, cells were exposed to 200 J/m^2 of UVC-irradiation. After 24 hours, apoptotic cells were counted as described in FIG. 1.
One day following transfection, except in the control group (Control), cells were exposed to UVC-irradiation in the absence (UV or UV+Ku70) or the presence of 50 uM z-VAD-fmk (UV+z-VAD).
HEK293T cells, HeLa cells, and mouse embryonic fibroblasts (MEF) were cultured in DMEM supplemented with 10% fetal bovine serum (FBS).

HEK293T cells [2] = experiment: Bax-induced apoptosis in HEK293T cells (pcDNA3-Bax transfection); type: cell-based; conditions: HEK293T cells co-transfected with pcDNA3-Bax and Ku70 construct, 24 hours
Experimental: 10^6 cells were transfected with 1.0 μg of pcDNA3 (Control) or pcDNA3-Bax (Bax) together with 0.5, 1.0, or 2.0 μg of pCMV-2B-Ku70 wt (Ku70 wt) or pcDNA3-Myc-XIAP (XIAP). In “Bax+Vector” group, 1.0 μg pcDNA3-Bax and 2 ug of pCMV-2B were used, respectively (Control and Bax+Vector). All the cells were also co-transfected with 0.5 μg pEGFP for the marking of transfected cells. Apoptosis in the transfected cells was analyzed 24 hours following transfection with Hoechst dye staining of the nucleus as described in Experimental Procedure. […] 10^6 cells were transfected with 1.0 μg pcDNA3-Bax and 2.0 μg pCMV-2B (Bax+Vector), pCMV-2B-Ku70 wt (Bax+Ku70 wt), or pcDNA3-Myc-XIAP (Bax+XIAP). […] Apoptosis in the transfected cells was analyzed at 24 hours (Control) or the indicated time points following transfection. […] After 24 hours, apoptotic cells were counted as described in FIG. 1B. […] The number of apoptotic cells was determined as described in FIG. 1B. […] Apoptosis in the transfected cells was analyzed at the indicated periods following transfection as described in FIG. 1C.
HEK293T cells, HeLa cells, and mouse embryonic fibroblasts (MEF) were cultured in DMEM supplemented with 10% fetal bovine serum (FBS). […] Apoptosis in the transfected cells were analyzed as follows: Plasmid encoding EGFP (0.5 ug of pEGFP) was transfected to all the groups to mark the transfected cells. […]

Bax [3] = biological target: T1, Bax (Homo sapiens, UniProt Q07812); experiment: Co-immunoprecipitation of Flag-tagged Ku70 constructs and Bax; type: binding; conditions: HEK293T cells, Flag-tagged constructs, 50 uM z-VAD-fmk, Chaps-based buffer
T1 construct: expressed in transfected cells; host or cells: HEK293T
Experimental: Interaction of Ku70 and Bax. […] (FIG. 4D) Co-immunoprecipitation of Flag-tagged-Ku70 and endogenous Bax. HEK293T cells (10^6 cells) were co-transfected with 1.0 μg pcDNA3-Bax and 1.0 μg pCMV-2B-control vector (Flag-tagged firefly luciferase), pCMV-2B-Ku70 wt (Flag-Ku70 wt), pCMV-2B-Ku701-535 (Flag-Ku701-535), pCMV-2B-Ku70496-609 (Flag-Ku70496-609) or pCMV-2B-Ku70536-609 (Flag-Ku70536-609) in the presence of 50 μM z-VAD-fmk. Co-immunoprecipitation was performed as described in FIG. 4C, and Western blot of Bax was done with anti-human Bax polyclonal antibody.
Immunoprecipitation was performed as follows according to the previous methods (Hsu and Youle, 1998, Matsuyama, 1998a). After precleaning of 600 ul of the sample with 50 ul of Protein G-Sepharose at 4° C. for 1 hour, immunoprecipitations were performed by incubating 200 ul of lysates with 20 ul of Protein G-Sepharose preabsorbed with 2 ug of anti-Bax polyclonal antibody or 2 ug of anti-Ku70 monoclonal antibody at 4° C. for 2 hours. After extensive washing in the buffer, beads were boiled in 40 ul of Laemmli buffer and 20 ul of the eluted proteins were subjected to SDS-PAGE immunoblot analysis.

Bax [4] = experiment: Subcellular localization / mitochondrial translocation of Bax (fractionation, Western blot, confocal); type: cell-based; conditions: HeLa cells 200 nM STS; HEK293T cells UVC 200 J/m^2
Experimental: FIG. 6A: Subcellular localization of Bax and Ku70. HeLa cells (10^7 cells) were transfected with 10 μg pCMV-2B (Control, STS,) or pCMV-2B-Ku70 (STS+Ku70). One day following transfection, except in the control group (Control), cells were treated by 200 nM STS (STS). One day after STS-treatment, cells were collected and subcellular fractionation was performed as described in Experimental Procedure. The levels of Ku70 (Ku70) and Bax (Bax) in each fraction were analyzed by Western blotting as described in Experimental Procedure. FoF1 ATP synthase subunit α (F1α) and PCNA (PCNA) were used as markers for mitochondrial and nuclear fractions, respectively. HM stands for “Heavy Membrane” fraction containing mitochondria. […] Cytosol fractions (20 μg protein) were separated by SDS-PAGE and analyzed by Western blotting for Ku70 (anti-Ku70 monoclonal antibody, BD-Pharmingen) and β-Tubulin (anti-β-Tubulin monoclonal antibody, BD-Pharmingen) levels. […] MEFs derived from wild-type (Ku70+/+) or Ku70-knockout mice (Ku70−/−) were analyzed as described in FIG. 6A. […] MEFs derived from wild-type (Ku70+/+) or Ku70-deficient (Ku70−/−) mice were treated with STS (200 nM) and cells were analyzed at indicated various periods after treatment as described in FIG. 6A. […]

Du145 cells = experiment: Apoptosis in Bax-deficient Du145 cells; type: cell-based, human; conditions: Du145, 200 J/m^2 UVC, 24 hours
Experimental: Du145 cells (10^6 cells) were transfected with 0.5 μg PEGFP and 1.0 μg pCMV-2B (Vector), pcDNA3-Myc-XIAP (XIAP), pCMV-2B-Ku70 wt (Ku70 wt), or pCMV-2B-Ku70536-609 (Ku70536-609). One day following transfection, cells were exposed to 200 J/m^2 of UVC-irradiation. After 24 hours, apoptotic cells were counted as described in FIG. 1.
Apoptosis was induced by pcDNA3-human Bax (Bax-encoding plasmid)-transfection, Staurosporin (STS)-treatment, UVC-irradiation, anti-Fas-antibody-treatment (clone CH11), and human recombinant TRAIL-treatment (BD-Pharmingen). The amount of the plasmids, the concentration of STS, Fas-antibody, and TRAIL, and the energy of UVC-irradiation are as described in the figure legends. Apoptosis in the transfected cells were analyzed as follows: Plasmid encoding EGFP (0.5 ug of pEGFP) was transfected to all the groups to mark the transfected cells. One day following transfection of the plasmids listed in the figure legends or treatment of the cells with staurosporin (STS) or UVC-irradiation, cells were stained with Hoechst dye and cells with apoptotic nuclei were counted in GFP expressing cells under fluorescent microscope as previously reported (Wei, et al., 2001). Each point in the figures showing percentages of apoptosis represents the mean±SE of three experiments.

Bax [5] = experiment: Mitochondrial translocation of Bax after TRAIL treatment in T98-G and Hep3B cells; type: cell-based, human; conditions: T98G and Hep3B, 100 ng/ml TRAIL, 24 hours
Experimental: FIG. 14. […] One day following the transfection, cells were treated by etoposide (20 uM). One day after the addition of etoposide into the culture, cells were collected and subcellular fractionation was performed as described in FIG. 9. […] Bax leveles in the samples of the fractions of the cytosol (“Cytosol”) and the heavy membrane (“HM”) were analyzed by Western blotting (middle and lower panels). […] All cells were also co-transfected with the plasmid encoding Green Fluorescent Protein (GFP) (pEGFP plasmid) for the detection of the transfected cells by GFP expression. One day following the transfection, etoposide (20 uM), cisplatin (20 uM), doxorubicin (1 uM), or TRAIL (100 ng/ml) was added to the culture, and cells were culture for 48 hours. The percentages of apoptotic cells were counted in GFP-expressing cells by staining the nucleus with Hochst-dye on day 1 and 2 of the culture. […] T98-G (glioma cell line) and Hep3B (hepatoma cell line) cells were cultured for 24 hours in the absence (“Control”) or the presence (“TRAIL”) of 100 ng/ml TRAIL. After the culture, cells were collected and subcellular fractionation was performed as described in FIG. 2. The samples of the cytosol fraction (20 ug protein) (“Cytosol”) and the equivalent proportion of heavy membrane fraction (“HM”) were subjected to Western analysis of Bax.

T1 sequence (Q07812 whole entry): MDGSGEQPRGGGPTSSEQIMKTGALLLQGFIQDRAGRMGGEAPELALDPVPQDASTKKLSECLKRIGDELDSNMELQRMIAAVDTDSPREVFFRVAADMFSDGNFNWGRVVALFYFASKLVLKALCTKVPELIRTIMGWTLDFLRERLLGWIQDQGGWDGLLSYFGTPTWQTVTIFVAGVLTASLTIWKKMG

binding to Bax (co-immunoprecipitation) (Bax [3]) | Molecule | effect on UVC-irradiation-induced cell death (HEK293T cells [1]) | effect on STS-induced apoptosis (Hela cells; 200 nM STS) | effect on Bax-induced apoptosis (HEK293T cells [2]) | further results
– | CN[C@@H]1C[C@H]2O[C@@](C)([C@@H]1OC)n1c3ccccc3c3c4c(c5c6ccccc6n2c5c31)C(=O)NC4 [STS, Staurosporine, reference compound] | – | – | – | percentages of apoptotic cells (Hela cells; 200 nM STS, control 3±1%): 49±4%
– | COC(=O)C[C@H](NC(=O)[C@H](C)NC(=O)[C@@H](NC(=O)OCc1ccccc1)C(C)C)C(=O)CF [z-VAD-fmk, reference compound] (Cbz-Val-Ala-Asp(OMe)-CH2F) | – | – | – | percentages of apoptotic cells (HEK293T cells [1]; HEK293T cells, UVC 200 J/m^2 in presence of 50 uM z-VAD-fmk, one day, UV alone 42±5%): 9±1%; percentages of apoptotic cells (Hela cells; 200 nM STS in presence of z-VAD-fmk): 11±3%
bound to Bax | Ku70496-609: Ku70 mutant construct encoding amino acids 496-609 of Ku70, lacking Ku80-binding domain | retained the cytoprotective activities | retained the cytoprotective activities | retained the cytoprotective activities | –
bound to Bax | Ku70536-609: Ku70 mutant expressing only the C-terminal 74 amino acids of Ku70 | sufficient to block | sufficient to block | sufficient to block | mitochondrial translocation of Bax induced by STS-treatment or UVC-irradiation (Bax [4]): inhibited Bax relocalization induced by UVC-irradiation; effect on UVC-irradiation-induced cell death in Bax-deficient cells (Du145 cells): did not rescue Bax-deficient cells from UVC-irradiation-induced cell death
– | TRAIL: cytokine, Tumor Necrosis Factor-Related Apoptosis-Inducing Ligand, human recombinant (protein, UniProt P50591 1-281, looked up) Tumor necrosis factor ligand …: MAMMEVQGGPSLGQTCVLIVIFTVLLQSLCVAVTYVYFTNELKQMQDKYSKSGIACFLKEDDSYWDPNDEESMNSPCWQVKWQLRQLVRKMILRTSEETISTVQEKQQNISPLVRERGPQRVAAHITGTRGRSNTLSSPNSKNEKALGRKINSWESSRSGHSFLSNLHLRNGELVIHEKGFYYIYSQTYFRFQEEIKENTKNDKQMVQYIYKYTSYPDPILLMKSARNSCWSKDAEYGLYSIYQGGIFELKENDRIFVSVTNEHLIDMDHEASFFGAFLVG | – | – | – | mitochondrial translocation of Bax (Bax [5]): did not induce the mitochondrial translocation of Bax
